According to PubChem BioAssay AID1963870 (Molecular Pharmacology Branch, DTP, NCI, 2024):

System: 292921-168-R-J2-PDC KRAS tumor spheroid viability
Test: Anticancer human tumor 292921-168-R-J2-PDC patient-derived pancreatic carcinoma cell line growth inhibition [KRAS2]
Conditions: spheroids with HUVEC and MSC; for IC50: curve of first compound; for viability, T/C: stronger effect = lower value
Summary of the method: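 Combination screen of spheroid viability in tumor-cell co-cultures with endothelial (HUVEC) and mesenchymal stem cell stroma. Each agent was tested in half-log dilutions, topping at clinical Cmax or at 10 microM without a known Cmax.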

[1] = second compound 0.1 µM, first compound 0.0316 µM
[2] = second compound 0.1 µM, first compound 0.1 µM
[3] = second compound 0.1 µM, first compound 0.316 µM
[4] = second compound 0.1 µM, first compound 1 µM
[5] = second compound 0.1 µM, first compound 3.16 µM
[6] = second compound 0.1 µM, first compound 10 µM
[7] = second compound 0.316 µM, first compound 0.0316 µM
[8] = second compound 0.316 µM, first compound 0.1 µM
[9] = second compound 0.316 µM, first compound 0.316 µM
[10] = second compound 0.316 µM, first compound 1 µM
[11] = second compound 0.316 µM, first compound 3.16 µM
[12] = second compound 0.316 µM, first compound 10 µM
[13] = second compound 1 µM, first compound 0.0316 µM
[14] = second compound 1 µM, first compound 0.1 µM
[15] = second compound 1 µM, first compound 0.316 µM
[16] = second compound 1 µM, first compound 1 µM
[17] = second compound 1 µM, first compound 3.16 µM
[18] = second compound 1 µM, first compound 10 µM
[19] = second compound 3.16 µM, first compound 0.0316 µM
[20] = second compound 3.16 µM, first compound 0.1 µM
[21] = second compound 3.16 µM, first compound 0.316 µM
[22] = second compound 3.16 µM, first compound 1 µM
[23] = second compound 3.16 µM, first compound 3.16 µM
[24] = second compound 3.16 µM, first compound 10 µM
[25] = second compound 0.0316 µM, first compound 0.0316 µM
[26] = second compound 0.0316 µM, first compound 0.1 µM
[27] = second compound 0.0316 µM, first compound 0.316 µM
[28] = second compound 0.0316 µM, first compound 1 µM
[29] = second compound 0.0316 µM, first compound 3.16 µM
[30] = second compound 0.0316 µM, first compound 10 µM
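Note: drug exposure lasted seven days after spheroids formed for three days.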
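Throughout, for viability, T/C: percent of DMSO vehicle control viability which is 100%.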

Row | SMILES | IC50 (second compound 0.1 µM) | IC50 (second compound 0.316 µM) | IC50 (second compound 1 µM) | IC50 (second compound 3.16 µM) | viability, T/C [1] | viability, T/C [2] | viability, T/C [3] | viability, T/C [4] | viability, T/C [5] | viability, T/C [6] | viability, T/C [7] | viability, T/C [8] | viability, T/C [9] | viability, T/C [10] | viability, T/C [11] | viability, T/C [12] | viability, T/C [13] | viability, T/C [14] | viability, T/C [15] | viability, T/C [16] | other results
1 | COc1cc(Nc2ncc3c(n2)-c2ccc(Cl)cc2C(c2c(F)cccc2OC)=NC3)ccc1C(=O)O + C=CC(=O)N1CCN(c2nc(=O)n(-c3c(C)ccnc3C(C)C)c3nc(-c4c(O)cccc4F)c(F)cc23)C(C)C1 | < 0.0316 µM | < 0.0316 µM | < 0.0316 µM | < 0.0316 µM | 33.5% | 34.2% | 41.3% | 40.8% | 34.8% | 26.4% | 35.9% | 33.3% | 37.4% | 40.2% | 40.3% | 29.9% | 41.8% | 35.6% | 40.1% | 39.4% | IC50 (second compound 10 µM): < 0.0316 µM; viability, T/C [17]: 32.3%; viability, T/C [18]: 30.6%; viability, T/C [19]: 36.8%; viability, T/C [20]: 31.5%; viability, T/C [21]: 34.8%; viability, T/C [22]: 38%; viability, T/C [23]: 35.2%; viability, T/C [24]: 29.5%; viability, T/C (second compound 10 µM, first compound 0.0316 µM): 22.9%; viability, T/C (second compound 10 µM, first compound 0.1 µM): 30.9%; viability, T/C (second compound 10 µM, first compound 0.316 µM): 35.2%; viability, T/C (second compound 10 µM, first compound 1 µM): 34.5%; viability, T/C (second compound 10 µM, first compound 3.16 µM): 31.8%; viability, T/C (second compound 10 µM, first compound 10 µM): 30%
2 | CC(C)NCC(C(=O)N1CCN(c2ncnc3c2C(C)CC3O)CC1)c1ccc(Cl)cc1 (stereo not given) + C=CC(=O)N1CCN(c2nc(OCC3CCCN3C)nc3c2CCN(c2cccc4cccc(C)c24)C3)CC1CC#N | > 10 µM | 6.01 µM | < 0.0316 µM | < 0.0316 µM | 85.2% | 78.6% | 85.3% | 79.3% | 74.4% | 51.8% | 71.5% | 68.5% | 65.1% | 69.2% | 59% | 42.3% | 36.7% | 28.8% | 28.9% | 32.1% | IC50 (second compound 0.0316 µM): > 10 µM; viability, T/C [25]: 88%; viability, T/C [26]: 84.6%; viability, T/C [27]: 84.5%; viability, T/C [28]: 82%; viability, T/C [29]: 73.9%; viability, T/C [30]: 54.7%; viability, T/C [17]: 28.1%; viability, T/C [18]: 21%; viability, T/C [19]: 0.1%; viability, T/C [20]: 0.09%; viability, T/C [21]: 0.09%; viability, T/C [22]: 0.1%; viability, T/C [23]: 0.11%; viability, T/C [24]: 0.21%
3 | CC1(C)CCC(CN2CCN(c3ccc(C(=O)NS(=O)(=O)c4ccc(NCC5CCOCC5)c([N+](=O)[O-])c4)c(Oc4cnc5[nH]ccc5c4)c3)CC2)=C(c2ccc(Cl)cc2)C1 + C=CC(=O)N1CCN(c2nc(OCC3CCCN3C)nc3c2CCN(c2cccc4cccc(C)c24)C3)CC1CC#N | 2.1 µM | 1.81 µM | 0.43 µM | < 0.0316 µM | 98.1% | 103% | 100% | 96.1% | 24.7% | 4.98% | 88.2% | 98.4% | 83.2% | 90.2% | 12.6% | 4.29% | 58% | 59.7% | 52% | 35.3% | IC50 (second compound 0.0316 µM): 2.04 µM; viability, T/C [25]: 99.8%; viability, T/C [26]: 101%; viability, T/C [27]: 96.1%; viability, T/C [28]: 92.5%; viability, T/C [29]: 23.8%; viability, T/C [30]: 4.26%; viability, T/C [17]: 2.72%; viability, T/C [18]: 2.98%; viability, T/C [19]: 0.13%; viability, T/C [20]: 0.2%; viability, T/C [21]: 0.14%; viability, T/C [22]: 0.12%; viability, T/C [23]: 0.37%; viability, T/C [24]: 0.26%
